According to patent US8802597B2, “Herbicidal pyrimidines” (E I du Pont de Nemours and Company, priority 2003, dated 2014):

Tests used:
Format in all cases: in vivo
[1] = test system: water seeded rice seedlings (Oryza sativa cv. ‘Japonica-M202’); assay: Test E flooded paddy water application; settings: Flood, 21 days, scale 0 to 100 (0 no effect, 100 complete control)
Method in brief: (§1)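 Weeds sown in sterilized Tama silt loam (2.6% organic matter), greenhouse 29.5/26.7° C, 16-h photoperiod; at 2.0–2.5-leaf stage pots flooded to 3 cm and compound added to paddy water. Visual rating vs untreated controls after 21 days, 0 (no effect) to 100 (complete control).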

[2] = test system: bearded (brdd.) sprangletop (Leptochloa fusca ssp. fascicularis); assay: Test E flooded paddy water application; settings: Flood, 21 days, scale 0 to 100 (0 no effect, 100 complete control)
Method in brief: as §1

[3] = test system: purple redstem (Ammannia coccinea); assay: Test E flooded paddy water application; settings: Flood, 21 days, scale 0 to 100 (0 no effect, 100 complete control)
Method in brief: as §1

[4] = test system: early watergrass (Echinochloa oryzoides); assay: Test E flooded paddy water application; settings: Flood, 21 days, scale 0 to 100 (0 no effect, 100 complete control)
Method in brief: as §1

[5] = test system: junglerice (Echinochloa colona); assay: Test E flooded paddy water application; settings: Flood, 21 days, scale 0 to 100 (0 no effect, 100 complete control)
Method in brief: as §1

[6] = test system: late watergrass (Echinochloa oryzicola); assay: Test E flooded paddy water application; settings: Flood, 21 days, scale 0 to 100 (0 no effect, 100 complete control)
Method in brief: as §1

[7] = test system: ducksalad (Heteranthera limosa); assay: Test E flooded paddy water application; settings: Flood, 21 days, scale 0 to 100 (0 no effect, 100 complete control)
Method in brief: as §1

[8] = test system: rice flatsedge (Cyperus iria); assay: Test E flooded paddy water application; settings: Flood, 21 days, scale 0 to 100 (0 no effect, 100 complete control)
Method in brief: as §1

[9] = test system: barnyardgrass (Echinochloa crus-galli); assay: Test E flooded paddy water application; settings: Flood, 21 days, scale 0 to 100 (0 no effect, 100 complete control)
Method in brief: as §1

[10] = test system: smallflower umbrella sedge (Cyperus difformis); assay: Test E flooded paddy water application; settings: Flood, 21 days, scale 0 to 100 (0 no effect, 100 complete control)
Method in brief: as §1

[11] = test system: transplanted rice seedlings (Oryza sativa cv. ‘Japonica-M202’); assay: Test E flooded paddy water application; settings: Flood, 21 days, scale 0 to 100 (0 no effect, 100 complete control)
Method in brief: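 Greenhouse pots of Tama silt loam with weeds and rice at 2.0–2.5-leaf stage, flooded to 3 cm; compounds applied directly into paddy water, depth maintained. Visual rating versus untreated controls after 21 days, 0 (no effect) to 100 (complete control); 29.5/26.7 °C, 16-h photoperiod.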

[12] = test system: redroot pigweed (Amaranthus retroflexus); assay: Test A pre/postemergence
Method in brief: (§2)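 Seeds sown in loam–sand blend received a preemergence directed soil spray of test chemical in non-phytotoxic solvent with surfactant; same-formulation postemergence spray given concurrently to plants 2–10 cm tall at 1- to 2-leaf stage. Greenhouse ~ten days, then visual injury rating versus untreated controls, 0 (no effect) to 100 (complete control).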

[13] = test system: velvetleaf (Abutilon theophrasti); assay: Test A pre/postemergence
Method in brief: as §2

[14] = test system: morningglory (Ipomoea spp.); assay: Test A pre/postemergence
Method in brief: as §2

[15] = test system: barnyardgrass (Echinochloa crus-galli); assay: Test A pre/postemergence
Method in brief: as §2

[16] = test system: crabgrass (Digitaria sanguinalis); assay: Test A pre/postemergence
Method in brief: as §2

[17] = test system: giant foxtail (Setaria faberi); assay: Test A pre/postemergence
Method in brief: as §2

[18] = Postemergence, 125 g ai/ha, 0 to 100 scale (0 no effect, 100 complete control)
[19] = Postemergence, 500 g ai/ha, 0 to 100 scale (0 no effect, 100 complete control)
[20] = Preemergence, 125 g ai/ha, 0 to 100 scale where 0 is no effect and 100 is complete control, approximately ten days
[21] = Preemergence, 500 g ai/ha, 0 to 100 scale where 0 is no effect and 100 is complete control, approximately ten days

## CCOC(=O)c1nc(-c2ccc(Cl)cc2F)nc(N)c1Br [Compound 69]
[1]; 32 g ai/ha
  Rice, Water Seeded plant response rating: 0
[1]; 64 g ai/ha
  Rice, Water Seeded plant response rating: 0
[1]; 125 g ai/ha
  Rice, Water Seeded plant response rating: 0
[1]; 250 g ai/ha
  Rice, Water Seeded plant response rating: 0
[1]; 16 g ai/ha
  Plant response rating, Rice, Water Seeded: 0
[2]; 32 g ai/ha
  Sprangletop, Brdd. plant response rating: 0
[2]; 64 g ai/ha
  Sprangletop, Brdd. plant response rating: 0
[2]; 125 g ai/ha
  Sprangletop, Brdd. plant response rating: 0
[2]; 250 g ai/ha
  Sprangletop, Brdd. plant response rating: 0
[2]; 16 g ai/ha
  Plant response rating, Sprangletop, Brdd.: 0
[3]; 32 g ai/ha
  Redstem plant response rating: 0
[3]; 64 g ai/ha
  Redstem plant response rating: 0
[3]; 125 g ai/ha
  Redstem plant response rating: 0
[3]; 250 g ai/ha
  Redstem plant response rating: 30
[3]; 16 g ai/ha
  Plant response rating, Redstem: 0
[4]; 32 g ai/ha
  Watergrass, Early plant response rating: 0
[4]; 64 g ai/ha
  Watergrass, Early plant response rating: 0
[4]; 125 g ai/ha
  Watergrass, Early plant response rating: 0
[4]; 250 g ai/ha
  Watergrass, Early plant response rating: 0
[4]; 16 g ai/ha
  Plant response rating, Watergrass, Early: 0
[5]; 32 g ai/ha
  Junglerice plant response rating: 0
[5]; 64 g ai/ha
  Junglerice plant response rating: 0
[5]; 125 g ai/ha
  Junglerice plant response rating: 0
[5]; 250 g ai/ha
  Junglerice plant response rating: 0
[5]; 16 g ai/ha
  Plant response rating, Junglerice: 0
[6]; 32 g ai/ha
  Watergrass, Late plant response rating: 0
[6]; 64 g ai/ha
  Watergrass, Late plant response rating: 0
[6]; 125 g ai/ha
  Watergrass, Late plant response rating: 0
[6]; 250 g ai/ha
  Watergrass, Late plant response rating: 0
[6]; 16 g ai/ha
  Plant response rating, Watergrass, Late: 0
[7]; 32 g ai/ha
  Ducksalad plant response rating: 100
[7]; 64 g ai/ha
  Ducksalad plant response rating: 100
[7]; 125 g ai/ha
  Ducksalad plant response rating: 100
[7]; 250 g ai/ha
  Ducksalad plant response rating: 100
[7]; 16 g ai/ha
  Plant response rating, Ducksalad: 95
[8]; 32 g ai/ha
  Flatsedge, Rice plant response rating: 70
[8]; 64 g ai/ha
  Flatsedge, Rice plant response rating: 100
[8]; 125 g ai/ha
  Flatsedge, Rice plant response rating: 100
[8]; 250 g ai/ha
  Flatsedge, Rice plant response rating: 100
[8]; 16 g ai/ha
  Plant response rating, Flatsedge, Rice: 65
[9]; 32 g ai/ha
  Barnyardgrass plant response rating: 0
[9]; 64 g ai/ha
  Barnyardgrass plant response rating: 0
[9]; 125 g ai/ha
  Barnyardgrass plant response rating: 0
[9]; 16 g ai/ha
  Plant response rating, Barnyardgrass: 0
[10]; 32 g ai/ha
  Sedge, Umbrella plant response rating: 0
[10]; 64 g ai/ha
  Sedge, Umbrella plant response rating: 30
[10]; 125 g ai/ha
  Sedge, Umbrella plant response rating: 90
[10]; 250 g ai/ha
  Sedge, Umbrella plant response rating: 100
[10]; 16 g ai/ha
  Plant response rating, Sedge, Umbrella: 0
[11]; 32 g ai/ha
  Rice, Transplanted plant response rating: 0
[11]; 64 g ai/ha
  Rice, Transplanted plant response rating: 0
[11]; 125 g ai/ha
  Rice, Transplanted plant response rating: 0
[11]; 250 g ai/ha
  Rice, Transplanted plant response rating: 0
[11]; 16 g ai/ha
  Plant response rating, Rice, Transplanted: 0
[12]; [18]
  Plant response rating, Pigweed: 90
[12]; [19]
  Plant response rating, Pigweed: 90
[12]; [20]
  Plant response rating, Pigweed: 65
[12]; [21]
  Plant response rating, Pigweed: 85
[13]; [18]
  Plant response rating, Velvetleaf: 85
[13]; [19]
  Plant response rating, Velvetleaf: 90
[13]; [20]
  Plant response rating, Velvetleaf: 35
[13]; [21]
  Plant response rating, Velvetleaf: 65
[14]; [18]
  Plant response rating, Morningglory: 75
[14]; [19]
  Plant response rating, Morningglory: 90
[14]; [20]
  Plant response rating, Morningglory: 0
[14]; [21]
  Plant response rating, Morningglory: 0
[15]; [18]
  Plant response rating, Barnyardgrass: 0
[15]; [19]
  Plant response rating, Barnyardgrass: 5
[15]; [20]
  Plant response rating, Barnyardgrass: 0
[15]; [21]
  Plant response rating, Barnyardgrass: 15
[16]; [18]
  Plant response rating, Crabgrass: 20
[16]; [19]
  Plant response rating, Crabgrass: 40
[16]; [20]
  Plant response rating, Crabgrass: 50
[16]; [21]
  Plant response rating, Crabgrass: 75
[17]; [18]
  Plant response rating, Foxtail, Giant: 0
[17]; [19]
  Plant response rating, Foxtail, Giant: 55
[17]; [20]
  Plant response rating, Foxtail, Giant: 10
[17]; [21]
  Plant response rating, Foxtail, Giant: 50
